Measured values as given in ChEMBL document CHEMBL1201862, “PubChem BioAssay data set” (2004).
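All cell lines were grown in 96-well plates and treated with compound for 48 hours. At the GI50, growth is halved.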 The source made the active and inactive calls. Rule as the data show it: active = GI50 up to about 1.1 µM and inactive = higher.

Tests used:
Assay in all cases: NCI anticancer screen, dose series, 48 h
786-0 = system: 786-0
A498 = system: A498
A549 = system: A549
DU-145 = system: DU-145
HCC 2998 = system: HCC 2998
HCT-116 = system: HCT-116
HOP-62 = system: HOP-62
HOP-92 = system: HOP-92
Hs-578T = system: Hs-578T
KM12 = system: KM12
MOLT-4 = system: MOLT-4
Malme-3M = system: Malme-3M
OVCAR-8 = system: OVCAR-8
SF-539 = system: SF-539
SK-OV-3 = system: SK-OV-3
SNB-19 = system: SNB-19
SNB-75 = system: SNB-75
SW-620 = system: SW-620
TK-10 = system: TK-10
UACC-257 = system: UACC-257

Compound	GI50 (786-0)	GI50 (A498)	GI50 (A549)	GI50 (DU-145)	GI50 (HCC 2998)	GI50 (HCT-116)	GI50 (HOP-62)	GI50 (HOP-92)	GI50 (Hs-578T)	GI50 (KM12)	GI50 (MOLT-4)	GI50 (Malme-3M)	GI50 (OVCAR-8)	GI50 (SF-539)	GI50 (SK-OV-3)	GI50 (SNB-19)	GI50 (SNB-75)	GI50 (SW-620)	GI50 (TK-10)	GI50 (UACC-257)
Nc1nc(Cl)c(N)c(NCC2(CO)CC(OCc3ccccc3)C2)n1 (stereo not given)	> 100 µM (inactive)	76.4 µM (inactive)	> 100 µM (inactive)	> 100 µM (inactive)	82 µM (inactive)	44.8 µM (inactive)	> 100 µM (inactive)	> 100 µM (inactive)	> 100 µM (inactive)	> 100 µM (inactive)	> 100 µM (inactive)	> 100 µM (inactive)	> 100 µM (inactive)	> 100 µM (inactive)	> 100 µM (inactive)	> 100 µM (inactive)	70 µM (inactive)	> 100 µM (inactive)	44 µM (inactive)	48.4 µM (inactive)
N#Cc1nc(-c2ccccn2)c(-c2ccccn2)nc1C#N	0.515 µM (active)	2.09 µM (inactive)	1.14 µM (inactive)	2.32 µM (inactive)	3.66 µM (inactive)	0.624 µM (active)	1.74 µM (inactive)	7.96 µM (inactive)	11.2 µM (inactive)	2.52 µM (inactive)	4.19 µM (inactive)	1.45 µM (inactive)	2.64 µM (inactive)	4.19 µM (inactive)	1.6 µM (inactive)	4.1 µM (inactive)	8.05 µM (inactive)	3.08 µM (inactive)	1.82 µM (inactive)	3.65 µM (inactive)
CCOC(=O)C(CS)NC(=O)CCCCCCCC(=O)NC(CS)C(=O)OCC (stereo not given)	> 100 µM (inactive)	> 100 µM (inactive)	> 100 µM (inactive)	> 100 µM (inactive)	> 100 µM (inactive)	> 100 µM (inactive)	> 100 µM (inactive)	> 100 µM (inactive)	> 100 µM (inactive)	> 100 µM (inactive)	32.4 µM (inactive)	92 µM (inactive)	> 100 µM (inactive)	> 100 µM (inactive)	> 100 µM (inactive)	37.4 µM (inactive)	> 100 µM (inactive)	> 100 µM (inactive)	> 100 µM (inactive)	34.4 µM (inactive)
Cn1c(=O)oc2cc(C(=O)CSC(=S)N3CCCCCC3)ccc21	> 100 µM (inactive)	6.93 µM (inactive)	> 100 µM (inactive)	> 100 µM (inactive)	78.7 µM (inactive)	73.6 µM (inactive)	61.1 µM (inactive)	> 100 µM (inactive)	19 µM (inactive)	49.8 µM (inactive)	41.3 µM (inactive)	> 100 µM (inactive)	> 100 µM (inactive)	> 100 µM (inactive)	> 100 µM (inactive)	> 100 µM (inactive)	> 100 µM (inactive)	> 100 µM (inactive)	> 100 µM (inactive)	> 100 µM (inactive)
Cc1noc(C)c1-n1nc2ccc3nonc3c2n1	37.5 µM (inactive)	32.7 µM (inactive)	> 100 µM (inactive)	> 100 µM (inactive)	> 100 µM (inactive)	56.6 µM (inactive)	22.5 µM (inactive)	29.1 µM (inactive)	29 µM (inactive)	> 100 µM (inactive)	> 100 µM (inactive)	> 100 µM (inactive)	50.7 µM (inactive)	41.5 µM (inactive)	34.8 µM (inactive)	32.3 µM (inactive)	33.1 µM (inactive)	> 100 µM (inactive)	24.8 µM (inactive)	> 100 µM (inactive)
CC(=O)O[C@@H]1CO[C@H]2O[C@H]3[C@@H](C(C=O)=C[C@H](O)[C@@H]4C5=C(C(C)C)CC[C@]5(C)CC[C@@]34C)[C@@]2(O)C1=O [STRIATIN E]	0.112 µM (active)	0.305 µM (active)	0.805 µM (active)	0.716 µM (active)	0.519 µM (active)	0.076 µM (active)	0.575 µM (active)	0.21 µM (active)	0.221 µM (active)	0.404 µM (active)	0.0906 µM (active)	0.177 µM (active)	0.13 µM (active)	0.177 µM (active)	3.74 µM (inactive)	0.692 µM (active)	0.0736 µM (active)	0.0499 µM (active)	0.229 µM (active)	0.219 µM (active)
C=CC[C@H]1[C@H](O[Si](C)(C)C(C)(C)C)C=CC(=O)[C@@H]1CC(=O)OCC	14.5 µM (inactive)	13.7 µM (inactive)	11.7 µM (inactive)	16.4 µM (inactive)	12.9 µM (inactive)	11.4 µM (inactive)	17.5 µM (inactive)	11.5 µM (inactive)	19 µM (inactive)	13.4 µM (inactive)	22 µM (inactive)	12.7 µM (inactive)	16.4 µM (inactive)	17.1 µM (inactive)	18.3 µM (inactive)	13 µM (inactive)	16.3 µM (inactive)	15.5 µM (inactive)	14.8 µM (inactive)	3.98 µM (inactive)
CC(C)(C)OC(=O)N1CC(COS(C)(=O)=O)c2ccc(O)cc21 (stereo not given)	2.59 µM (inactive)	2.18 µM (inactive)	3.12 µM (inactive)	0.507 µM (active)	0.133 µM (active)	1.95 µM (inactive)	3.3 µM (inactive)	2.52 µM (inactive)	2.46 µM (inactive)	2.46 µM (inactive)	0.443 µM (active)	1.52 µM (inactive)	1.85 µM (inactive)	2.06 µM (inactive)	3.15 µM (inactive)	2.7 µM (inactive)	1.46 µM (inactive)	2.1 µM (inactive)	3.37 µM (inactive)	2.29 µM (inactive)
COc1ccc(C[C@H]2NC[C@H](O)[C@H]2OC(C)=O)cc1 [ANISOMYCIN]	0.018 µM (active)	0.0324 µM (active)	0.0232 µM (active)	0.0223 µM (active)	0.0229 µM (active)	< 0.015 µM (active)	< 0.021 µM (active)	0.016 µM (active)	0.01 µM (active)	0.0224 µM (active)	< 0.013 µM (active)	0.0552 µM (active)	< 0.0168 µM (active)	0.0213 µM (active)	0.0398 µM (active)	< 0.0177 µM (active)	< 0.0106 µM (active)	0.0164 µM (active)	0.0479 µM (active)	0.0359 µM (active)
O=c1[nH]nc(Cc2ccccc2)n1C1CC1	> 100 µM (inactive)	> 100 µM (inactive)	> 100 µM (inactive)	> 100 µM (inactive)	> 100 µM (inactive)	> 100 µM (inactive)	> 100 µM (inactive)	> 100 µM (inactive)	> 100 µM (inactive)	> 100 µM (inactive)	> 100 µM (inactive)	> 100 µM (inactive)	> 100 µM (inactive)	> 100 µM (inactive)	> 100 µM (inactive)	> 100 µM (inactive)	> 100 µM (inactive)	> 100 µM (inactive)	> 100 µM (inactive)	> 100 µM (inactive)
COc1c(Br)cc2c(c1OC)C(Br)CCC(Br)(Br)C2=O (stereo not given)	0.385 µM (active)	3.32 µM (inactive)	4.34 µM (inactive)	3.01 µM (inactive)	5.08 µM (inactive)	0.273 µM (active)	2.19 µM (inactive)	3.3 µM (inactive)	10.4 µM (inactive)	3.72 µM (inactive)	< 0.0183 µM (active)	1.89 µM (inactive)	0.378 µM (active)	1.85 µM (inactive)	2.9 µM (inactive)	4.36 µM (inactive)	9.02 µM (inactive)	0.38 µM (active)	3.17 µM (inactive)	3.17 µM (inactive)
CC(=O)[C@]1(C)[C@H](C)O[C@](C)(CO)[C@H]1O[Si](C)(C)c1ccccc1	81.5 µM (inactive)	> 100 µM (inactive)	56.6 µM (inactive)	57.1 µM (inactive)	31.5 µM (inactive)	38.4 µM (inactive)	> 100 µM (inactive)	11.2 µM (inactive)	45 µM (inactive)	47.6 µM (inactive)	34.6 µM (inactive)	15.4 µM (inactive)	48 µM (inactive)	> 100 µM (inactive)	> 100 µM (inactive)	> 100 µM (inactive)	> 100 µM (inactive)	73.6 µM (inactive)	82.4 µM (inactive)	23 µM (inactive)
c1cc(CSc2ncnc3[nH]cnc23)ccn1	39 µM (inactive)	> 100 µM (inactive)	> 100 µM (inactive)	65.3 µM (inactive)	92.5 µM (inactive)	77.8 µM (inactive)	91.8 µM (inactive)	> 100 µM (inactive)	> 100 µM (inactive)	> 100 µM (inactive)	34.7 µM (inactive)	> 100 µM (inactive)	94 µM (inactive)	24.5 µM (inactive)	41.3 µM (inactive)	> 100 µM (inactive)	> 100 µM (inactive)	> 100 µM (inactive)	59.8 µM (inactive)	> 100 µM (inactive)
